Biological target: TYK2 (Homo sapiens, UniProt P29597)
Assay: TYK2 protein degradation in NOMO-1 cells by immunoblotting
Format: cell-based
Parameters: endogenous in cells
Conditions: NOMO-1 cells
How it was run: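 NOMO-1 cells in RPMI 1640 with 10% FBS were exposed to compound at 0.1–1000 nM for 16 hours. TYK2 levels in RIPA lysates were measured by SDS-PAGE immunoblot with chemiluminescent detection and band densitometry.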

Chain of TYK2 (P29597 whole entry): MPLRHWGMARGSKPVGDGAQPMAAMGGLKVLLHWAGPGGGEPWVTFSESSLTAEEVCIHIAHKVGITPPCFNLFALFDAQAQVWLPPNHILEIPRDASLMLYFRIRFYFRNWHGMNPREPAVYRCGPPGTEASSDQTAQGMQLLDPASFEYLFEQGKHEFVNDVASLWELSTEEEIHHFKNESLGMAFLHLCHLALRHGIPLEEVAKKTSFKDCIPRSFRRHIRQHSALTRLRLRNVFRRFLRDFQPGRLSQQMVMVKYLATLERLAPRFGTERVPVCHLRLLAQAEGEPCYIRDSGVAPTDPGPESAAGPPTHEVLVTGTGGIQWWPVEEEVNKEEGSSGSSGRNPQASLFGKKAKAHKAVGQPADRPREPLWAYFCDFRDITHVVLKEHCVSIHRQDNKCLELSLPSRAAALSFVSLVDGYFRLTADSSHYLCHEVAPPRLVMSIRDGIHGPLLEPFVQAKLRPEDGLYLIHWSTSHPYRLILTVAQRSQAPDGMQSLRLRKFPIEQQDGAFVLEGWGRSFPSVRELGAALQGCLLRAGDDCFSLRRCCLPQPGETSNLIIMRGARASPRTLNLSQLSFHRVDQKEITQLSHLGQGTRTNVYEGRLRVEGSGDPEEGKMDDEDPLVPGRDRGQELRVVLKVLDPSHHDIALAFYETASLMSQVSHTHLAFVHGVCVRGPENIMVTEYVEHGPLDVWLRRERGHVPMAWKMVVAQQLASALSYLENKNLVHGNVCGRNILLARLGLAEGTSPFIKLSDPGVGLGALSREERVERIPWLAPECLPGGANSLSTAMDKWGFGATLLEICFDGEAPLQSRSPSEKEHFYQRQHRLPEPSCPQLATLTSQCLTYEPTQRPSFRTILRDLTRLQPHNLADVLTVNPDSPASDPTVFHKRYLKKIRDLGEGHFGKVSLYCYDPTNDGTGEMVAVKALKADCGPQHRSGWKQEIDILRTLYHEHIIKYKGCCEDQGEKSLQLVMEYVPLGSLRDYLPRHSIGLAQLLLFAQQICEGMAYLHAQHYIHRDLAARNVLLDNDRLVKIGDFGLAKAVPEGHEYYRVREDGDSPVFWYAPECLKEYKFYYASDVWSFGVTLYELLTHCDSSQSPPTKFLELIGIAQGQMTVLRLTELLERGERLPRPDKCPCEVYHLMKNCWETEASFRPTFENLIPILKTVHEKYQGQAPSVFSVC

Row | Compound | TYK2 Degradation (NOMO-1, 10 nM) | TYK2 Degradation (NOMO-1, 100 nM)
1 | CNC(=O)c1nnc(Nc2ccc(C(=O)NCCCCCC(=O)N[C@H](C(=O)N3C[C@H](O)C[C@H]3C(=O)N[C@@H](C)c3ccc(-c4scnc4C)cc3)C(C)(C)C)cn2)cc1Nc1cccc(-c2ncn(C)n2)c1OC [CPD-141, 6-((5-((6-(((S)-1-((2S,4R)-4-Hydroxy-2-(((S)-1-(4-(4-methylthiazol-5-yl)phenyl)ethyl)carbamoyl)pyrrolidin-1-yl)-3,3-dimethyl-1-oxobutan-2-yl)amino)-6-oxohexyl)carbamoyl)pyridin-2-yl)amino)-4-((2-methoxy-3-(1-methyl-1H-1,2,4-triazol-3-yl)phenyl)amino)-N-methylpyridazine-3-carboxamide] | B (B: <60% TYK2 degradation, and >20% TYK2 degradation) | A (A: ≥60% TYK2 degradation)
2 | CNC(=O)c1nnc(Nc2ccc(C(=O)NCCOCCNc3cccc4c3C(=O)N(C3CCC(=O)NC3=O)C4=O)cn2)cc1Nc1cccc(-c2ncn(C)n2)c1OC (stereo not drawn) [CPD-159, 6-((5-((2-(2-((2-(2,6-dioxopiperidin-3-yl)-1,3-dioxoisoindolin-4-yl)amino)ethoxy)ethyl)carbamoyl)pyridin-2-yl)amino)-4-((2-methoxy-3-(1-methyl-1H-1,2,4-triazol-3-yl)phenyl)amino)-N-methylpyridazine-3-carboxamide] | A (A: ≥60% TYK2 degradation) | A (A: ≥60% TYK2 degradation)
3 | CNC(=O)c1nnc(Nc2ccc(N3CCN(C(=O)CCCCCCC(=O)N[C@H](C(=O)N4C[C@H](O)C[C@H]4C(=O)N[C@@H](C)c4ccccc4)C(C)(C)C)CC3)cn2)cc1Nc1cccc(-c2ncn(C)n2)c1OC [CDD-169, 6-((5-(4-(8-(((S)-1-((2S,4R)-4-hydroxy-2-(((S)-1-phenylethyl)carbamoyl)pyrrolidin-1-yl)-3,3-dimethyl-1-oxobutan-2-yl)amino)-8-oxooctanoyl)piperazin-1-yl)pyridin-2-yl)amino)-4-((2-methoxy-3-(1-methyl-1H-1,2,4-triazol-3-yl)phenyl)amino)-N-methylpyridazine-3-carboxamide] | C (C: ≤20% TYK2 degradation) | C (C: ≤20% TYK2 degradation)
4 | CNC(=O)c1nnc(Nc2ccc(N3CCN(C4CCN(C(=O)CCCCCC(=O)N[C@H](C(=O)N5C[C@H](O)C[C@H]5C(=O)N[C@@H](C)c5ccc(-c6scnc6C)cc5)C(C)(C)C)CC4)CC3)cn2)cc1Nc1cccc(-c2ncn(C)n2)c1OC [CPD-148, 6-((5-(4-(1-(7-(((S)-1-((2S,4R)-4-hydroxy-2-(((S)-1-(4-(4-methylthiazol-5-yl)phenyl)ethyl)carbamoyl)pyrrolidin-1-yl)-3,3-dimethyl-1-oxobutan-2-yl)amino)-7-oxoheptanoyl)piperidin-4-yl)piperazin-1-yl)pyridin-2-yl)amino)-4-((2-methoxy-3-(1-methyl-1H-1,2,4-triazol-3-yl)phenyl)amino)-N-methylpyridazine-3-carboxamide] | A (A: ≥60% TYK2 degradation) | A (A: ≥60% TYK2 degradation)
5 | CNC(=O)c1nnc(Nc2ccc(C#CC3CN(C(=O)CCCCCC(=O)N[C@H](C(=O)N4C[C@H](O)C[C@H]4C(=O)N[C@@H](C)c4ccc(-c5scnc5C)cc4)C(C)(C)C)C3)cn2)cc1Nc1cccc(-c2ncn(C)n2)c1OC [CPD-124, 6-((5-((1-(7-(((S)-1-((2S,4R)-4-hydroxy-2-(((S)-1-(4-(4-methylthiazol-5-yl)phenyl)ethyl)carbamoyl)pyrrolidin-1-yl)-3,3-dimethyl-1-oxobutan-2-yl)amino)-7-oxoheptanoyl)azetidin-3-yl)ethynyl)pyridin-2-yl)amino)-4-((2-methoxy-3-(1-methyl-1H-1,2,4-triazol-3-yl)phenyl)amino)-N-methylpyridazine-3-carboxamide] | A (A: ≥60% TYK2 degradation) | A (A: ≥60% TYK2 degradation)
6 | CNC(=O)c1nnc(Nc2ccc(C#CC3CCN(C(=O)CCCCCCCC(=O)N[C@H](C(=O)N4C[C@H](O)C[C@H]4C(=O)N[C@@H](C)c4ccc(-c5scnc5C)cc4)C(C)(C)C)CC3)cn2)cc1Nc1cccc(-c2ncn(C)n2)c1OC [CPD-120, 6-((5-((1-(9-(((S)-1-((2S,4R)-4-Hydroxy-2-(((S)-1-(4-(4-methylthiazol-5-yl)phenyl)ethyl)carbamoyl)pyrrolidin-1-yl)-3,3-dimethyl-1-oxobutan-2-yl)amino)-9-oxononanoyl)piperidin-4-yl)ethynyl)pyridin-2-yl)amino)-4-((2-methoxy-3-(1-methyl-1H-1,2,4-triazol-3-yl)phenyl)amino)-N-methylpyridazine-3-carboxamide] |  | A (A: ≥60% TYK2 degradation)
7 | CNC(=O)c1nnc(Nc2ccc(CNC(=O)CCCCCCC(=O)N[C@H](C(=O)N3C[C@H](O)C[C@H]3C(=O)N[C@@H](C)c3ccc(-c4scnc4C)cc3)C(C)(C)C)cn2)cc1Nc1cccc(-c2ncn(C)n2)c1OC [CPD-131, N1-((S)-1-((2S,4R)-4-hydroxy-2-(((S)-1-(4-(4-methylthiazol-5-yl)phenyl)ethyl)carbamoyl)pyrrolidin-1-yl)-3,3-dimethyl-1-oxobutan-2-yl)-N8-((6-((5-((2-methoxy-3-(1-methyl-1H-1,2,4-triazol-3-yl)phenyl)amino)-6-(methylcarbamoyl)pyridazin-3-yl)amino)pyridin-3-yl)methyl)octanediamide] | A (A: ≥60% TYK2 degradation) | A (A: ≥60% TYK2 degradation)
8 | CNC(=O)c1nnc(Nc2ccc(N3CCN(C4CCN(C(=O)CCCCCCCCC(=O)N[C@H](C(=O)N5C[C@H](O)C[C@H]5C(=O)N[C@@H](C)c5ccc(-c6scnc6C)cc5)C(C)(C)C)CC4)CC3)cn2)cc1Nc1cccc(-c2ncn(C)n2)c1OC [CPD-151, 6-((5-(4-(1-(10-(((S)-1-((2S,4R)-4-hydroxy-2-(((S)-1-(4-(4-methylthiazol-5-yl)phenyl)ethyl)carbamoyl)pyrrolidin-1-yl)-3,3-dimethyl-1-oxobutan-2-yl)amino)-10-oxodecanoyl)piperidin-4-yl)piperazin-1-yl)pyridin-2-yl)amino)-4-((2-methoxy-3-(1-methyl-1H-1,2,4-triazol-3-yl)phenyl)amino)-N-methylpyridazine-3-carboxamide] | A (A: ≥60% TYK2 degradation) | A (A: ≥60% TYK2 degradation)
9 | CNC(=O)c1nnc(Nc2ccc(CNC(=O)CCCCCC(=O)N[C@H](C(=O)N3C[C@H](O)C[C@H]3C(=O)N[C@@H](C)c3ccc(-c4scnc4C)cc3)C(C)(C)C)cn2)cc1Nc1cccc(-c2ncn(C)n2)c1OC [CPD-130, N1-((S)-1-((2S,4R)-4-Hydroxy-2-(((S)-1-(4-(4-methylthiazol-5-yl)phenyl)ethyl)carbamoyl)pyrrolidin-1-yl)-3,3-dimethyl-1-oxobutan-2-yl)-N7-((6-((5-((2-methoxy-3-(1-methyl-1H-1,2,4-triazol-3-yl)phenyl)amino)-6-(methylcarbamoyl)pyridazin-3-yl)amino)pyridin-3-yl)methyl)heptanediamide] |  | B (B: <60% TYK2 degradation, and >20% TYK2 degradation)
10 | CNC(=O)c1nnc(Nc2ccc(C(=O)NCCCCNc3ccc4c(c3)C(=O)N(C3CCC(=O)NC3=O)C4=O)cn2)cc1Nc1cccc(-c2ncn(C)n2)c1OC (stereo not drawn) [CPD-163, 6-((5-((4-((2-(2,6-dioxopiperidin-3-yl)-1,3-dioxoisoindolin-5-yl)amino)butyl)carbamoyl)pyridin-2-yl)amino)-4-((2-methoxy-3-(1-methyl-1H-1,2,4-triazol-3-yl)phenyl)amino)-N-methylpyridazine-3-carboxamide] |  | C (C: ≤20% TYK2 degradation)
11 | CNC(=O)c1nnc(Nc2ccc(C(=O)NCCCNc3cccc4c3C(=O)N(C3CCC(=O)NC3=O)C4=O)cn2)cc1Nc1cccc(-c2ncn(C)n2)c1OC (stereo not drawn) [CPD-153, 6-((5-((3-((2-(2,6-Dioxopiperidin-3-yl)-1,3-dioxoisoindolin-4-yl)amino)propyl)carbamoyl)pyridin-2-yl)amino)-4-((2-methoxy-3-(1-methyl-1H-1,2,4-triazol-3-yl)phenyl)amino)-N-methylpyridazine-3-carboxamide] |  | C (C: ≤20% TYK2 degradation)
12 | CNC(=O)c1nnc(Nc2ccc(N3CCN(C(=O)CCCCCCCC(=O)N[C@H](C(=O)N4C[C@H](O)C[C@H]4C(=O)N[C@@H](C)c4ccc(-c5scnc5C)cc4)C(C)(C)C)CC3)cn2)cc1Nc1cccc(-c2ncn(C)n2)c1OC [CPD-115, 6-((5-(4-(9-(((S)-1-((2S,4R)-4-hydroxy-2-(((S)-1-(4-(4-methylthiazol-5-yl)phenyl)ethyl)carbamoyl)pyrrolidin-1-yl)-3,3-dimethyl-1-oxobutan-2-yl)amino)-9-oxononanoyl)piperazin-1-yl)pyridin-2-yl)amino)-4-((2-methoxy-3-(1-methyl-1H-1,2,4-triazol-3-yl)phenyl)amino)-N-methylpyridazine-3-carboxamide] | A (A: ≥60% TYK2 degradation) | A (A: ≥60% TYK2 degradation)
13 | CNC(=O)c1nnc(Nc2ccc(CNC(=O)CCC(=O)N[C@H](C(=O)N3C[C@H](O)C[C@H]3C(=O)N[C@@H](C)c3ccc(-c4scnc4C)cc3)C(C)(C)C)cn2)cc1Nc1cccc(-c2ncn(C)n2)c1OC [CPD-128, N1-((S)-1-((2S,4R)-4-Hydroxy-2-(((S)-1-(4-(4-methylthiazol-5-yl)phenyl)ethyl)carbamoyl)pyrrolidin-1-yl)-3,3-dimethyl-1-oxobutan-2-yl)-N4-((6-((5-((2-methoxy-3-(1-methyl-1H-1,2,4-triazol-3-yl)phenyl)amino)-6-(methylcarbamoyl)pyridazin-3-yl)amino)pyridin-3-yl)methyl)succinamide] |  | C (C: ≤20% TYK2 degradation)

Source: US20240059671A1, “TYROSINE KINASE 2 (TYK2) DEGRADATION COMPOUNDS AND METHODS OF USE” (CULLGEN (SHANGHAI), INC., priority 2020, published 2024)
